Our source for the EC50 values is patent publication US20260256797A1, “NOVEL INDENONE DERIVATIVES AND USES THEREOF” (AMYLOID SOLUTION INC., priority 2022, published 2026).

Experiment [1] has as its target T1, Aβ1-42 (Homo sapiens, UniProt P05067).
T1 construct: dissolving Aβ1-42 or Tau-RD3 (Tau repeat domain 3) monomer in DMSO
Briefly: Amyloid-beta (Aβ) disaggregation test by thioflavin-T assay. Format: biochemical. Conditions: 50 μM Aβ1-42 aggregated 24 hours, then compound 0-500 μM for 48 hours at 37° C. How it is done: (§1) Each compound was dissolved in DMSO to a concentration of 10 mM. Subsequently, the compound was diluted with 6% DMSO (in DW) and used.
(§2) Specifically, amyloid-beta and tau solutions were prepared by dissolving Aβ1-42 or Tau-RD3 (Tau repeat domain 3) monomer in DMSO to a concentration of 10 mM. Thereafter, each solution was diluted with DW to a concentration of 100 μM and stored on ice. Meanwhile, thioflavin-T was dissolved in 50 mM glycine buffer (pH 8.5) to a concentration of 5 mM. Thereafter, the resulting solution was diluted with 50 mM glycine buffer (pH 8.5) to a concentration of 5 μM and stored in a dark room while light was blocked.
(§3) Each of the amyloid-beta and tau solutions prepared according to Experimental Example 1.1 was added to a 1.5 mL microcentrifuge tube to a concentration of 50 μM or 35 µM, and then a reaction was allowed to occur therebetween at 37° C. for 24 hours. Each of the 1.5 mL microcentrifuge tubes in which amyloid-beta aggregation and tau aggregation had been completed was treated with each compound at a concentrated of 500 μM to 0 μM through serial dilution, and then a further reaction was allowed to occur therebetween at 37° C. for 48 hours. 25 μL of the reaction solution in which the reaction had been completed was added to each well of a 96-well plate for fluorescence analysis, and 75 μL of the previously prepared thioflavin-T solution was added to each well. After a reaction was allowed to occur at room temperature in the dark for 5 minutes, fluorescence values were measured at excitation 450 nm and emission 485 nm by using a multi-mode microplate reader.
(§4) The fluorescence value of a group (control) treated with amyloid-beta or tau alone, followed by aggregation for 72 hours was converted into a percentage value and expressed as 100, and amyloid-beta and tau aggregates, in which aggregation had been completed upon reaction for 24 hours, were treated with each compound at each concentration and a further reaction was allowed to occur therebetween for 48 hours, and then fluorescence values thereof were measured and converted into relative values. The results thereof are illustrated in FIGS. 1 to 6 and 7 to 12. In addition, EC50 values of the compounds of the present disclosure for amyloid-beta and tau, respectively are summarized in Table 1.

The target of experiment [2] is Tau-RD3 (Tau repeat domain 3) (Homo sapiens, UniProt P10636). Kind of experiment: Tau disaggregation test by thioflavin-T assay. It is filed as biochemical. Conditions: 35 μM Tau-RD3 aggregated 24 hours, then compound 0-500 μM for 48 hours at 37° C. How it is done: as §1, §2, §3, §4
Chain of Tau-RD3 (Tau repeat domain 3) (P10636 623-653 limits assumed): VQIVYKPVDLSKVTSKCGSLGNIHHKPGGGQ

T1 sequence (P05067 672-713 limits assumed): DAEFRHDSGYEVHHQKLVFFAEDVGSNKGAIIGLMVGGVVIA

Turning to `Cc1ncsc1C1=C(c2cccnc2)C(=O)c2cc(OCCCc3ccccc3)ccc21` [Compound 1, 3-(4-methylthiazol-5-yl)-6-(3-phenylpropoxy)-2-(pyridin-3-yl)-1H-inden-1-one], the EC50 in experiment [1] was 8.2 µM; in experiment [2], 19.2 µM.

As for `Cc1ncsc1C1=C(c2ccccc2CC#N)C(=O)c2cc(OCCCc3ccccc3)ccc21` [Compound 2, 2-(2-(3-(4-methylthiazol-5-yl)-1-oxo-6-(3-phenylpropoxy)-1H-inden-2-yl)phenyl) acetonitrile], the results for the EC50 in experiment [1] and in experiment [2] were 92.9 µM and 321 µM, respectively.

In the case of `Cc1ncsc1C1=C(Br)C(=O)c2cc(OCCCc3ccccc3)ccc21` [Compound 3, 2-bromo-3-(4-methylthiazol-5-yl)-6-(3-phenylpropoxy)-1H-inden-1-one], the results for the 50% effective concentration (EC50) in experiment [1] and in experiment [2] were 3.8 µM and 8.5 µM, respectively.

Regarding `Cc1scnc1C1=C(c2cccnc2)C(=O)c2cc(OCCCN3CCOCC3)ccc21` [Compound 4, 3-(5-methylthiazol-4-yl)-6-(3-morpholinopropoxy)-2-(pyridin-3-yl)-1H-inden-1-one], the 50% effective concentration (EC50) in experiment [1] was 75 µM; in experiment [2], 156 µM.

On to `Cc1scnc1C1=C(Br)C(=O)c2cc(OCCCN3CCOCC3)ccc21` [Compound 5, 2-bromo-3-(5-methylthiazol-4-yl)-6-(3-morpholinopropoxy)-1H-inden-1-one], for which the EC50 was 65.6 µM in experiment [1] and 344 µM in experiment [2].

For `O=C1C(c2cccnc2)=C(c2cccs2)c2ccc(OCCCc3ccccc3)cc21` [Compound 6, 6-(3-phenylpropoxy)-2-(pyridin-3-yl)-3-(thiophen-2-yl)-1H-inden-1-one], the values for the EC50 in experiment [1] and in experiment [2] were 3.2 µM and 16.2 µM, respectively.

As to `Cc1scnc1C1=C(c2cccnc2)C(=O)c2cc(OCCCc3ccccc3)ccc21` [Compound 8, 3-(5-methylthiazol-4-yl)-6-(3-phenylpropoxy)-2-(pyridin-3-yl)-1H-inden-1-one], the concentration for a half-maximal effect (EC50) amounted to 1.9 µM in experiment [1] and 4.2 µM in experiment [2].

As to `O=C1C(c2cccnc2)=C(c2ccoc2)c2ccc(OCCCc3ccccc3)cc21` [Compound 9, 3-(furan-3-yl)-6-(3-phenylpropoxy)-2-(pyridin-3-yl)-1H-inden-1-one], the 50% effective concentration (EC50) stood at 19.1 µM in experiment [1] and 53.6 µM in experiment [2].

For `Cc1ncsc1C1=C(c2ccccc2)C(=O)c2cc(OCCCc3ccccc3)ccc21` [Compound 10, 3-(4-methylthiazol-5-yl)-2-phenyl-6-(3-phenylpropoxy)-1H-inden-1-one], the half-maximal effective concentration (EC50) in experiment [1] turned out to be 5.6 µM; in experiment [2], 350 µM.

Consider `Cc1ncsc1C1=C(c2cccs2)C(=O)c2cc(OCCCc3ccccc3)ccc21` [Compound 12, 3-(4-methylthiazol-5-yl)-6-(3-phenylpropoxy)-2-(thiophen-2-yl)-1H-inden-1-one], for which the EC50 amounted to 4.3 µM in experiment [1] and 154 µM in experiment [2].

For `Cc1ncsc1C1=C(c2cccnc2)C(=O)c2cc(OCCCc3ccncc3)ccc21` [Compound 13, 3-(4-methylthiazol-5-yl)-2-(pyridin-3-yl)-6-(3-(pyridin-4-yl)propoxy)-1H-inden-1-one], the EC50 in experiment [1] worked out at 110 µM; in experiment [2], 1.5 µM.

For the compound `Cc1ncsc1C1=C(c2cccnc2)C(=O)c2cc(OCCc3ccccc3)ccc21` [Compound 14, 3-(4-methylthiazol-5-yl)-6-phenethoxy-2-(pyridin-3-yl)-1H-inden-1-one], the EC50 in experiment [1] was 177 µM; in experiment [2] it was above 500 µM.

As to `Cc1ncsc1C1=C(c2cccnc2)C(=O)c2cc(OCCCCc3ccccc3)ccc21` [Compound 15, 3-(4-methylthiazol-5-yl)-6-(4-phenylbutoxy)-2-(pyridin-3-yl)-1H-inden-1-one], the 50% effective concentration (EC50) was found to be 2.5 µM in experiment [1] and 59.8 µM in experiment [2].

As to `Cc1ncsc1C1=C(c2cccnc2)C(=O)c2cc(OCOCc3ccccc3)ccc21` [Compound 16, 6-((benzyloxy)methoxy)-3-(4-methylthiazol-5-yl)-2-(pyridin-3-yl)-1H-inden-1-one], the results for the concentration for a half-maximal effect (EC50) in experiment [1] and in experiment [2] were 12.5 µM and 96.5 µM, respectively.

`Cc1ncsc1C1=C(c2cccnc2)C(=O)c2cc(OCCOc3ccccc3)ccc21` [Compound 17, 3-(4-methylthiazol-5-yl)-6-(2-phenoxyethoxy)-2-(pyridin-3-yl)-1H-inden-1-one]: the EC50 in experiment [1] was 5.7 µM; in experiment [2], 19.2 µM.

Take `COc1ccc(C2=C(c3ncsc3C)c3ccc(OCCc4ccccc4)cc3C2=O)cc1` [Compound 18, 2-(4-methoxyphenyl)-3-(5-methylthiazol-4-yl)-6-phenethoxy-1H-inden-1-one]: the half-maximal effective concentration (EC50) is 26.1 µM in experiment [1] and 242 µM in experiment [2].

As for `COc1ccc(C2=C(c3ncsc3C)c3ccc(OCCCCc4ccccc4)cc3C2=O)cc1` [Compound 19, 2-(4-methoxyphenyl)-3-(5-methylthiazol-4-yl)-6-(4-phenylbutoxy)-1H-inden-1-one], the figures for the EC50 in experiment [1] and in experiment [2] were 11.6 µM and 338 µM, respectively.

For the compound `COc1ccc(C2=C(c3ncsc3C)c3ccc(OCOCc4ccccc4)cc3C2=O)cc1` [Compound 20, 6-((benzyloxy)methoxy)-2-(4-methoxyphenyl)-3-(5-methylthiazol-4-yl)-1H-inden-1-one], the EC50 in experiment [1] is 11.9 µM; in experiment [2] it was 478 µM.

With `COc1ccc(OCCOc2ccc3c(c2)C(=O)C(c2ccc(F)cc2)=C3c2ncsc2C)cc1` [Compound 22, 2-(4-fluorophenyl)-6-(2-(4-methoxyphenoxy)ethoxy)-3-(5-methylthiazol-4-yl)-1H-inden-1-one], the EC50 in experiment [1] was found to be 18.5 µM; in experiment [2], 60.3 µM.

In the case of `COc1ccc(OCCOc2ccc3c(c2)C(=O)C(c2ccc(F)cc2)=C3c2ncsc2C)cc1OC` [Compound 23, 6-(2-(3,4-dimethoxyphenoxy)ethoxy)-2-(4-fluorophenyl)-3-(5-methylthiazol-4-yl)-1H-inden-1-one], the 50% effective concentration (EC50) in experiment [1] came out at 4.1 µM; in experiment [2], 5.2 µM.

Turning to `Cc1scnc1C1=C(c2ccc(F)cc2)C(=O)c2cc(OCCOc3ccc4c(c3)OCO4)ccc21` [Compound 24, 6-(2-(benzo[d][1,3]dioxol-5-yloxy)ethoxy)-2-(4-fluorophenyl)-3-(5-methylthiazol-4-yl)-1H-inden-1-one], the values for the EC50 in experiment [1] and in experiment [2] were 99.6 µM and above 500 µM, respectively.

Turning to `Cc1scnc1C1=C(c2ccc(F)cc2)C(=O)c2cc(OCCOc3ccncc3)ccc21` [Compound 25, 2-(4-fluorophenyl)-3-(5-methylthiazol-4-yl)-6-(2-(pyridin-4-yloxy)ethoxy)-1H-inden-1-one], the EC50 in experiment [1] is 7.6 µM; in experiment [2] it was above 500 µM.

With `Cc1scnc1C1=C(c2cncnc2)C(=O)c2cc(OCCOc3ccc(Cl)c(Cl)c3)ccc21` [Compound 26, 6-(2-(3,4-dichlorophenoxy)ethoxy)-3-(5-methylthiazol-4-yl)-2-(pyrimidin-5-yl)-1H-inden-1-one], the results for the EC50 in experiment [1] and in experiment [2] were 2.4 µM and 4.8 µM, respectively.

As for `Cc1scnc1C1=C(c2cncnc2)C(=O)c2cc(OCCOc3ccc(F)c(F)c3)ccc21` [Compound 27, 6-(2-(3,4-difluorophenoxy)ethoxy)-3-(5-methylthiazol-4-yl)-2-(pyrimidin-5-yl)-1H-inden-1-one], the figures for the half-maximal effective concentration (EC50) in experiment [1] and in experiment [2] were 237 µM and above 500 µM, respectively.

For the compound `Cc1scnc1C1=C(c2cccs2)C(=O)c2cc(OCCc3ccccc3)ccc21` [Compound 28, 3-(5-methylthiazol-4-yl)-6-phenethoxy-2-(thiophen-2-yl)-1H-inden-1-one], the half-maximal effective concentration (EC50) was 8.3 µM in experiment [1] and 310 µM in experiment [2].

On to `Cc1scnc1C1=C(c2cccs2)C(=O)c2cc(OCCCCc3ccccc3)ccc21` [Compound 29, 3-(5-methylthiazol-4-yl)-6-(4-phenylbutoxy)-2-(thiophen-2-yl)-1H-inden-1-one], for which the concentration giving a half-maximal response (EC50) is 7.5 µM in experiment [1] and above 500 µM in experiment [2].

Regarding `Cc1scnc1C1=C(c2cccs2)C(=O)c2cc(OCOCc3ccccc3)ccc21` [Compound 30, 6-((benzyloxy)methoxy)-3-(5-methylthiazol-4-yl)-2-(thiophen-2-yl)-1H-inden-1-one], the concentration for a half-maximal effect (EC50) was 3.7 µM in experiment [1] and 410 µM in experiment [2].

As for `Cc1scnc1C1=C(c2cccs2)C(=O)c2cc(OCCOc3ccccc3)ccc21` [Compound 31, 3-(5-methylthiazol-4-yl)-6-(2-phenoxyethoxy)-2-(thiophen-2-yl)-1H-inden-1-one], the results for the concentration giving a half-maximal response (EC50) in experiment [1] and in experiment [2] were 12.8 µM and 166 µM, respectively.
